According to ChEMBL document CHEMBL1128879, “Design, synthesis, and structure-activity relationships of 2-substituted-2-amino-1,3-propanediols: Discovery of a novel immunosuppressant, FTY720” (Bioorg Med Chem Lett, 1995):
Each block holds one compound with its values, some of them ahead of it.

Tests used:
Mus musculus = species: Mus musculus; experiment: In vitro ability to inhibit mouse allogenic mixed leukocyte response (MLR); type: functional
Rattus norvegicus [1] = experiment: (§1) Compound was evaluated in vivo in rat skin allograft by intravenous (iv) administration; toxic; type: organism-based
Rattus norvegicus [2] = experiment: as §1; type: functional
Rattus norvegicus [3] = experiment: Compound was evaluated in vivo for the immunosuppressive activity following intraperitoneal (ip) administration at a dose of 0.1 mg/Kg; type: functional
Rattus norvegicus [4] = experiment: Compound was evaluated in vivo for the immunosuppressive activity following intraperitoneal (ip) administration at a dose of 3 mg/Kg; type: functional
Rattus norvegicus [5] = experiment: Compound was evaluated in vivo for the immunosuppressive activity following intraperitoneal (ip) administration at a dose of 1 mg/Kg; type: functional
Rattus norvegicus [6] = experiment: Compound was evaluated in vivo for the immunosuppressive activity following intraperitoneal (ip) administration at a dose of 0.3 mg/Kg; type: functional
Rattus norvegicus [7] = experiment: Compound was evaluated in vivo for the immunosuppressive activity following peroral (po) administration at a dose of 0.1 mg/Kg; type: functional
Rattus norvegicus [8] = experiment: Compound was evaluated in vivo for the immunosuppressive activity following intravenous (iv) administration at a dose of 3 mg/Kg; type: functional
Rattus norvegicus [9] = experiment: Compound was evaluated in vivo in rat skin allograft by intravenous (iv) administration; not toxic; type: functional
Rattus norvegicus [10] = experiment: Compound was evaluated in vivo for the immunosuppressive activity following intraperitoneal (ip) administration at a dose of 3 mg/kg; type: functional
Rattus norvegicus [11] = experiment: Compound was evaluated in vivo for the immunosuppressive activity following peroral (po) administration at a dose of 3 mg/Kg; type: functional
Rattus norvegicus [12] = experiment: Compound was evaluated in vivo for the immunosuppressive activity following intravenous (iv) administration at a dose of 0.1 mg/kg; type: functional
Rattus norvegicus [13] = experiment: Compound was evaluated in vivo for the immunosuppressive activity following intravenous (iv) administration at a dose of 10 mg/Kg; type: functional
Rattus norvegicus [14] = experiment: Compound was evaluated in vivo for the immunosuppressive activity following peroral (po) administration at a dose of 30 mg/Kg; type: functional

IC50 (Mus musculus): 19 nM
Structure (SMILES): CCCCCCc1ccc(CCCCC(N)(CO)CO)cc1

Structure (SMILES): CCCCCCCCCCCCCCCC(N)(CO)CO
Dose (Rattus norvegicus [1]): 3 mg/kg

Structure (SMILES): CCCCCCCCCCCCCCC(N)(CO)CO
Dose (Rattus norvegicus [2]): 10 mg/kg | MST (Rattus norvegicus [3]): 12 days | MST (Rattus norvegicus [4]): 45 days | MST (Rattus norvegicus [5]): 40 days | MST (Rattus norvegicus [6]): 28 days

IC50 (Mus musculus): 13 nM
Structure (SMILES): CCCCCCCCCCc1ccc(C(N)(CO)CO)cc1

IC50 (Mus musculus): 350 nM
Structure (SMILES): CCCCCCCc1ccc(CCCC(N)(CO)CO)cc1

IC50 (Mus musculus): 8.5 nM
Structure (SMILES): CCCCCCCCCc1ccc(CCC(N)(CO)CO)cc1

IC50 (Mus musculus): 32 nM
Structure (SMILES): CCc1ccc(CCCCCCCCC(N)(CO)CO)cc1

IC50 (Mus musculus): 100 nM
Structure (SMILES): CCCCc1ccc(CCCCCCC(N)(CO)CO)cc1

Structure (SMILES): CCCCCCCCCc1ccc(CC(N)(CO)CO)cc1
IC50 (Mus musculus): 70 nM

IC50 (Mus musculus): 54 nM
Structure (SMILES): NC(CO)(CO)CCCCCCCCCCc1ccccc1

Structure (SMILES): CCCCCCCCc1ccc(CCC(N)(CO)CO)cc1 [FINGOLIMOD]
MST (Rattus norvegicus [7]): 19.3 days | MST (Rattus norvegicus [3]): 32 days | MST (Rattus norvegicus [8]): 46.3 days | Dose (Rattus norvegicus [9]): 10 mg/kg | MST (Rattus norvegicus [10]): 60 days | MST (Rattus norvegicus [11]): 41 days | MST (Rattus norvegicus [5]): 45 days | MST (Rattus norvegicus [12]): 24.8 days | MST (Rattus norvegicus [13]): 53.5 days | MST (Rattus norvegicus [14]): 57.8 days | MST (Rattus norvegicus [6]): 36 days
